Reference: patent publication US20260317320A1, “C5AR1 ANTAGONISTS AND USES THEREOF” (Vanqua Bio, Inc., priority 2022, published 2026)

What was measured:
[1] = target: T1, complement C5a receptor 1 (C5aR1) (Homo sapiens, UniProt P21730); assay: β-arrestin recruitment via C5aR1 activation in live CHO-K1 cells (PathHunter), antagonist mode; format: cell-based; conditions: antagonist mode; recombinant hC5a (EC90) as competing natural agonist; live CHO-K1 cells; read-out: [Antagonist] B-arrestin2 recruitment: Average IC50
T1 construct: β-galactosidase fragment (PathHunter enzyme complementation); host or cells: CHO-K1 (PathHunter CHO-K1 C5aR1 β-arrestin cell line)
T1 sequence (P21730 1-350): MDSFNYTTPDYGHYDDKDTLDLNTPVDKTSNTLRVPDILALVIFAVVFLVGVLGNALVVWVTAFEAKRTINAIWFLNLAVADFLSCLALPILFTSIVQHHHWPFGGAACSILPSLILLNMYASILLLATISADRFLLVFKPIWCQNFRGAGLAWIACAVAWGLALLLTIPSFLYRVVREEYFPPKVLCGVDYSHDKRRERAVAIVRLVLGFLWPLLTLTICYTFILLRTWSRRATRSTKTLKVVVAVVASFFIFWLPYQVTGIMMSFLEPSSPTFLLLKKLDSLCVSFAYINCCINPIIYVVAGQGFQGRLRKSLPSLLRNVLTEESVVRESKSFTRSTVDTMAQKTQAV
Summary of the method: (§1)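 Live CHO-K1 cells expressing β-galactosidase fragments fused to β-arrestin and C5aR1; recruitment is read by fragment complementation. In agonist mode compounds are tested alone; in antagonist mode they compete against recombinant hC5a at EC90. IC50 reported in binned ranges.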

[2] = target: T1, complement C5a receptor 1 (C5aR1); assay: β-arrestin recruitment via C5aR1 activation in live CHO-K1 cells (PathHunter), agonist mode; format: cell-based; conditions: at 10 μM
Summary of the method: as §1

IC50 [1] [nM]	[Agonist] B-arrestin2 recruitment: Average EC50 (nM) [2]	Compound
< 500	Non-Active at 10 μM	CCc1cnc2cc([C@H]3CC[C@H](c4c(C)cccc4F)CC3)c(=O)n(Cc3ncccc3OC(F)(F)F)c2n1 [compound 204, 3-Ethyl-7-((1r,4r)-4-(2-fluoro-6-methylphenyl)cyclohexyl)-5-((3-(trifluoromethoxy)pyridin-2-yl)methyl)pyrido[2,3-b]pyrazin-6(5H)-one]
500 to 5000	Non-Active at 10 μM	Cc1ccc2cc([C@H]3CC[C@H](c4c(C)cccc4F)CC3)c(=O)n(Cc3nccnc3C)c2n1 [compound 206, 3-((1r,4r)-4-(2-fluoro-6-methylphenyl)cyclohexyl)-7-methyl-1-((3-methylpyrazin-2-yl)methyl)-1,8-naphthyridin-2(1H)-one]
5000 to 100000	Non-Active at 10 μM	Cc1cnc2cc([C@H]3CC[C@H](c4c(F)ccc5c4cnn5C)CC3)c(=O)n(Cc3ncccc3C(F)(F)F)c2n1 [compound 207, 7-((1r,4r)-4-(5-Fluoro-1-methyl-1H-indazol-4-yl)cyclohexyl)-3-methyl-5-((3-(trifluoromethyl)pyridin-2-yl)methyl)pyrido[2,3-b]pyrazin-6(5H)-one]
< 500	Non-Active at 10 μM	Cc1cnc2cc([C@H]3CC[C@H](c4c(F)cccc4F)CC3)c(=O)n(Cc3ncccc3OC(F)(F)F)c2n1 [compound 209, 7-((1r,4r)-4-(2,6-Difluorophenyl)cyclohexyl)-3-methyl-5-((3-(trifluoromethoxy)pyridin-2-yl)methyl)pyrido[2,3-b]pyrazin-6(5H)-one]
< 500	Non-Active at 10 μM	Cc1ccc2cc([C@H]3CC[C@H](c4c(C)cccc4F)CC3)c(=O)n(Cc3nccnc3C(F)F)c2n1 [compound 210, 1-((3-(Difluoromethyl)pyrazin-2-yl)methyl)-3-((1r,4r)-4-(2-fluoro-6-methylphenyl)cyclohexyl)-7-methyl-1,8-naphthyridin-2(1H)-one]
< 500	Non-Active at 10 μM	CCc1cnc2c(cc([C@H]3CC[C@H](c4c(C)cccc4F)CC3)c(=O)n2Cc2ncccc2C(F)(F)F)n1 [compound 211, 2-Ethyl-7-((1r,4r)-4-(2-fluoro-6-methylphenyl)cyclohexyl)-5-((3-(trifluoromethyl)pyridin-2-yl)methyl)pyrido[2,3-b]pyrazin-6(5H)-one]
< 500	Non-Active at 10 μM	Cc1cnc2cc([C@H]3CC[C@H](c4c(C)cccc4F)CC3)c(=O)n(Cc3ncccc3OC(F)F)c2n1 [compound 212, 5-((3-(Difluoromethoxy)pyridin-2-yl)methyl)-7-((1r,4r)-4-(2-fluoro-6-methylphenyl)cyclohexyl)-3-methylpyrido[2,3-b]pyrazin-6(5H)-one]
< 500	Non-Active at 10 μM	Cc1cnc2cc([C@H]3CC[C@H](c4c(C)cccc4F)CC3)c(=O)n(Cc3ncccc3OCC(F)(F)F)c2n1 [compound 213, 7-((1r,4r)-4-(2-Fluoro-6-methylphenyl)cyclohexyl)-3-methyl-5-((3-(2,2,2-trifluoroethoxy)pyridin-2-yl)methyl)pyrido[2,3-b]pyrazin-6(5H)-one]
5000 to 100000	Non-Active at 10 μM	COc1cccnc1Cn1c(=O)c([C@H]2CC[C@H](c3c(C)cccc3F)CC2)cc2nc(C(F)(F)F)cnc21 [compound 214, 7-((1r,4r)-4-(2-Fluoro-6-methylphenyl)cyclohexyl)-5-((3-methoxypyridin-2-yl)methyl)-2-(trifluoromethyl)pyrido[2,3-b]pyrazin-6(5H)-one]
< 500	Non-Active at 10 μM	CCc1cnc2c(cc([C@H]3CC[C@H](c4c(C)cccc4F)CC3)c(=O)n2Cc2ncccc2OC(F)(F)F)n1 [compound 215, 2-Ethyl-7-((1r,4r)-4-(2-fluoro-6-methylphenyl)cyclohexyl)-5-((3-(trifluoromethoxy)pyridin-2-yl)methyl)pyrido[2,3-b]pyrazin-6(5H)-one]
500 to 5000	Non-Active at 10 μM	Cc1cnc2cc([C@H]3CC[C@H](c4c(F)cccc4C(F)(F)F)CC3)c(=O)n(Cc3ncccc3OC(F)(F)F)c2n1 [compound 216, 7-((1r,4r)-4-(2-Fluoro-6-(trifluoromethyl)phenyl)cyclohexyl)-3-methyl-5-((3-(trifluoromethoxy)pyridin-2-yl)methyl)pyrido[2,3-b]pyrazin-6(5H)-one]
5000 to 100000	Non-Active at 10 μM	Cc1cnc2cc([C@H]3CC[C@H](c4c(F)ccc5cnn(C)c54)CC3)c(=O)n(Cc3ncccc3C(F)(F)F)c2n1 [compound 217, 3-Methyl-7-[(1r,4r)-4-(6-fluoro-1-methylindazol-7-yl)cyclohexyl]-5-{[3-(trifluoromethyl)pyridin-2-yl]methyl}pyrido[2,3-b]pyrazin-6-one]
< 500	Non-Active at 10 μM	Cc1cnc2cc([C@H]3CC[C@H](c4c(C)cccc4F)CC3)c(=O)n(Cc3ncccc3CC(F)(F)F)c2n1 [compound 219, 7-((1r,4r)-4-(2-Fluoro-6-methylphenyl)cyclohexyl)-3-methyl-5-((3-(2,2,2-trifluoroethyl)pyridin-2-yl)methyl) pyrido[2,3-b]pyrazin-6(5H)-one]
< 500	Non-Active at 10 μM	Cc1cnc2cc([C@H]3CC[C@H](c4c(C)cccc4F)CC3)c(=O)n(Cc3ncccc3C3CC3)c2n1 [compound 220, 5-((3-Cyclopropylpyridin-2-yl)methyl)-7-((1r,4r)-4-(2-fluoro-6-methylphenyl)cyclohexyl)-3-methylpyrido[2,3-b]pyrazin-6(5H)-one]
< 500	Non-Active at 10 μM	Cc1cnc2cc([C@H]3CC[C@H](c4c(C)cccc4F)CC3)c(=O)n(Cc3nccnc3C3CC3)c2n1 [compound 221, 5-((3-Cyclopropylpyrazin-2-yl)methyl)-7-((1r,4r)-4-(2-fluoro-6-methylphenyl)cyclohexyl)-3-methylpyrido[2,3-b]pyrazin-6(5H)-one]
< 500	Non-Active at 10 μM	Cc1cnc2cc([C@H]3CC[C@H](c4c(F)cccc4F)CC3)c(=O)n(Cc3ncccc3C(F)(F)F)c2n1 [compound 222, 7-((1r,4r)-4-(2,6-Difluorophenyl)cyclohexyl)-3-methyl-5-((3-(trifluoromethyl)pyridin-2-yl)methyl)pyrido[2,3-b]pyrazin-6(5H)-one]
< 500	Non-Active at 10 μM	Cc1ccc2cc([C@H]3CC[C@H](c4c(F)cccc4F)CC3)c(=O)n(Cc3ncccc3C(F)(F)F)c2n1 [compound 223, 3-((1r,4r)-4-(2,6-Difluorophenyl)cyclohexyl)-7-methyl-1-((3-(trifluoromethyl)pyridin-2-yl)methyl)-1,8-naphthyridin-2(1H)-one]
< 500	Non-Active at 10 μM	Cc1cnc2cc([C@H]3CC[C@H](c4c(C)cccc4F)CC3)c(=O)n(Cc3ccccc3C(F)(F)F)c2n1 [compound 224, 7-((1r,4r)-4-(2-Fluoro-6-methylphenyl)cyclohexyl)-3-methyl-5-(2-(trifluoromethyl)benzyl)pyrido[2,3-b]pyrazin-6(5H)-one]
< 500	Non-Active at 10 μM	Cc1ccc2cc([C@H]3CC[C@H](c4c(C)cccc4F)CC3)c(=O)n(Cc3ccccc3C(F)(F)F)c2n1 [compound 225, 3-((1r,4r)-4-(2-Fluoro-6-methylphenyl)cyclohexyl)-7-methyl-1-(2-(trifluoromethyl)benzyl)-1,8-naphthyridin-2(1H)-one]
< 500	Non-Active at 10 μM	Cc1cccc(F)c1[C@H]1CC[C@H](c2cc3nc(CC(F)F)cnc3n(Cc3ncccc3C(F)(F)F)c2=O)CC1 [compound 226, 2-(2,2-Difluoroethyl)-7-((1r,4r)-4-(2-fluoro-6-methylphenyl)cyclohexyl)-5-((3-(trifluoromethyl)pyridin-2-yl)methyl)pyrido[2,3-b]pyrazin-6(5H)-one]
< 500	Non-Active at 10 μM	CCCc1cnc2cc([C@H]3CC[C@H](c4c(C)cccc4F)CC3)c(=O)n(Cc3ncccc3C(F)(F)F)c2n1 [compound 227, 7-((1r,4r)-4-(2-Fluoro-6-methylphenyl)cyclohexyl)-3-propyl-5-((3-(trifluoromethyl)pyridin-2-yl)methyl)pyrido[2,3-b]pyrazin-6(5H)-one]
< 500	Non-Active at 10 μM	Cc1cccc(F)c1[C@H]1CC[C@H](c2cc3nc(CC(F)(F)F)cnc3n(Cc3ncccc3C(F)(F)F)c2=O)CC1 [compound 228, 7-((1r,4r)-4-(2-Fluoro-6-methylphenyl)cyclohexyl)-2-(2,2,2-trifluoroethyl)-5-((3-(trifluoromethyl)pyridin-2-yl)methyl)pyrido[2,3-b]pyrazin-6(5H)-one]
